Laboratory results published in PMC9538324 (Journal of medical virology, 2022).

What was measured:
SARS-CoV-2 Beta variant = assay: Virucidal assay; conditions: virus pretreated with 10 μM, compared with untreated and post-treated controls
[1] = human, in vivo; cited from earlier work

In the case of `CCc1nc(C(N)=O)c(Nc2ccc(N3CCC(N4CCN(C)CC4)CC3)c(OC)c2)nc1NC1CCOCC1` [Gilteritinib, gilteritinib], the “virucidal effect on virus viability” value (SARS-CoV-2 Beta variant) is listed as “did not greatly reduce viability” and the clinical outcome [1] is listed as “successful remission”.
